Experimental data: patent publication US4517197A, “-N-substituted phenyl-5-methoxymethyl-2-oxazolidinones and pharmaceutical compositions containing same” (Delalande S.A., priority 1980, dated 1985)

How the values were obtained:
[1] = system: generalized trembling caused by dl-5-hydroxytryptophane; assay: Test A: potentiation in mice of generalized trembling caused by intraperitoneal injection of dl-5-hydroxytryptophane; format: in vivo; details: Mus musculus, po, dl-5-hydroxytryptophane 200 mg/kg intraperitoneal, read-out: Test A ED 50
Experimental: Test A: potentiation in mice of generalized trembling caused by an intraperitoneal injection (200 mg/kg) of dl-5-hydroxytryptophane, according to the procedure described by Gouret C. and Raynaud G. in J. Pharmacol. (Paris) (1974), 5, 231.

ptosis after reserpine = assay: Test B: antagonism of ptosis observed an hour after intravenous injection of reserpine in mice; format: in vivo; details: Mus musculus, po, ptosis an hour after reserpine 2 mg/kg intravenous, read-out: Test B ED 50
Experimental: Test B: antagonism with respect to ptosis observed an hour after an intravenous injection (2 mg/kg) of reserpine in mice according to the procedure described by Gouret C. and Thomas J. in J. Pharmacol. (Paris), (1973), 4, 401.

Toxicity (mice) = details: mouse, in vivo, po, read-out: Toxicity (mice) LD 50

| Structure (SMILES) | ED50 [1] [mg/kg] | ED50 (ptosis after reserpine) [mg/kg] | LD50 (Toxicity (mice)) [mg/kg] |
| --- | --- | --- | --- |
| COCC1CN(c2ccc(C#Cc3cccc(C#N)c3)cc2)C(=O)O1 (centres unmarked) [compound 282] | 0.3 | 0.3 | > 1000 |
| COCC1CN(c2ccc(CCCCCC#N)cc2)C(=O)O1 (centres unmarked) [compound 289] | 0.15 | 0.2 | > 1000 |
| COCC1CN(c2ccc(COc3cccc(Cl)c3)cc2)C(=O)O1 (centres unmarked) [compound 273] | 5.9 | 3.4 | > 1000 |
| COCC1CN(c2ccc(CCc3cccc(Cl)c3)cc2)C(=O)O1 (centres unmarked) [compound 271] | 4.1 | 3.8 | > 1000 |
| COCC1CN(c2ccc(-c3ccc(Cl)cc3)cc2)C(=O)O1 (centres unmarked) [compound 269] | 1.7 | 1.2 | > 1000 |
| COCC1CN(c2ccc(CC(=O)c3cccc(Cl)c3)cc2)C(=O)O1 (centres unmarked) [compound 274] | 1.2 | 0.9 | > 1000 |
| COCC1CN(c2ccc(C#CC3CCCCC3)cc2)C(=O)O1 (centres unmarked) [compound 281] | 1.3 | 0.6 | > 1000 |
| COCC1CN(c2ccc(OCCc3cccc(Cl)c3)cc2)C(=O)O1 (centres unmarked) [compound 264] | 2.8 | 3 | > 1000 |
| COCC1CN(c2ccc(COc3cccc(C#N)c3)cc2)C(=O)O1 (centres unmarked) [compound 275] | 0.6 | 0.3 | > 1000 |
| COCC1CN(c2ccc(-c3cccc(C#N)c3)cc2)C(=O)O1 (centres unmarked) [compound 284] | 1.2 | 1.3 | > 1000 |
| COCC1CN(c2ccc(OCCc3cccc(C#N)c3)cc2)C(=O)O1 (centres unmarked) [compound 267] | 1.8 | 1.3 | > 1000 |
| Cc1cccc(N2CC(CO)OC2=O)c1 (centres unmarked) [TOLOXATONE, reference compound] | 60 | 50 |  |
| COCC1CN(c2ccc(C#Cc3cccc(Cl)c3)cc2)C(=O)O1 (centres unmarked) [compound 277] | 1.2 | 1.7 | > 1000 |
| COCC1CN(c2ccc(CC(=O)c3cccc(C#N)c3)cc2)C(=O)O1 (centres unmarked) [compound 270] | 0.2 | 0.2 | > 1000 |
| COCC1CN(c2ccc(CCc3cccc(C#N)c3)cc2)C(=O)O1 (centres unmarked) [compound 272] | 0.5 | 0.4 | > 1000 |
| COCC1CN(c2ccc(OCCC(C)=O)cc2)C(=O)O1 (centres unmarked) [compound 238] | 1.9 | 1.1 | > 1000 |
